The values that follow come from US20230181537A1, “Translation Blockers Repurposed for COVID-19 Therapy” (priority 2020, published 2023).

Each structure is given as a SMILES string.

One experiment has as its system SARS-CoV-2 USA-WA1/2020. Type of experiment: cell-based. The note with it: for viral infectivity (plaque assay): Vero-E6, MOI 0.0002, drug at 1 uM; for anti-viral activity against CoV2 infection of Vero-C6 cells: Vero-C6 (African green monkey kidney cells), dose response; for viral infectivity (number of plaques): Vero-E6, MOI 0.0001 or 0.0002, drugs added after infection at 1 uM and 10 uM.

For another experiment, the system named is APP 5′UTR. In words: High-throughput transfection-based APP 5′UTR luciferase reporter assay in SH-SY5Y cells. Type of experiment: cell-based. As to conditions: high-throughput screen. (In general: Reporter assays use an easily measured gene product as a stand-in for the process of interest.)
The subject of another experiment is APP mRNA. The note with it: refs [25,27]; cited from earlier work.
The next experiment deals with APP 5′UTR / IRP1. The note with it: refs [25,27]; cited from earlier work.
A further experiment deals with SARS-CoV-2. Nature of the experiment: Anti-viral efficacy assay by immunocytochemical fluorescence in infected Vero E6 cells. Type of experiment: cell-based. From the text: 9A: Typical anti-viral efficacy assays conducted for the top COVID-19 inhibitors from a range of APP 5′UTR-directed inhibitors. In this exemplary case, Vero E6 cells were infected with SARS-CoV-2 at a multiplicity of infection of 0.1 and treated either with DMSO (negative control) or compound at the indicated concentrations. At 2 days post infection, cells were fixed and stained with an antibody against SARS-CoV-2 nucleocapsid protein. Cell nuclei were stained with DAPI. Infection rates quantified using Qupath software. 9B: Densitometric quantitation of JTR-009 dependent inhibition of Spike protein in COVID-19 infected Vero E6 cells (based on levels of Spike immunocytochemistry shown).
Initial virus assays were performed to experimentally test the benzimidazole APP 5′UTR directed translation blocker-9 (JTR-9) (FIG. 9). […] We tested JTR-009 for possible antiviral efficacy potentially via the related the CRRM motifs in the replicase open reading frame (ORF) related to the APP 5′UTR. We employed immunocytochemical fluorescence of Spike Protein as readout for viral infectivity. […] Therapeutic activity is being tested via the two CRRM RNA motifs in the virus replicase (FIG. 9).

Regarding `CCC12C=CCN3CC[C@@]4(c5ccc(OC)cc5N(C)[C@H]4[C@@](O)(C(=O)OC)[C@@H]1OC(C)=O)[C@@H]32` (mixture of isomers) [B1, vindoline], in the experiment on SARS-CoV-2 USA-WA1/2020, the “viral infectivity (plaque assay)” value is reported as “reduced viral infectivity”.
Take `CCCSc1ccc2nc(NC(=O)OC)[nH]c2c1` [Albendazole]: in the experiment with APP 5′UTR, the “inhibition of APP 5′UTR driven expression of a Luciferase reporter gene” value (“inhibition … of a Luciferase reporter gene” below) stood at 92.2%. Besides, in the experiment on SARS-CoV-2 USA-WA1/2020, the “anti-viral activity against CoV2 infection of Vero-C6 cells” value (“anti-viral activity” below) was “dose responsive anti-viral activity” and the “viral infectivity (number of plaques)” value was “inhibited viral infectivity”.
For the compound `COC(=O)Nc1nc2ccc(Sc3ccccc3)cc2[nH]1` [Fenbendazole], the “inhibition … of a Luciferase reporter gene” value in the experiment on APP 5′UTR was found to be 91.5%.
As to `Cc1ccc2[nH]c(-c3ccc(N)cc3)nc2c1` [JTR-009], in the experiment with SARS-CoV-2 USA-WA1/2020, the “anti-viral activity” value was “dose responsive anti-viral activity” and the “viral infectivity (number of plaques)” value is recorded as “inhibited viral infectivity”. Besides, the “APP mRNA translation” value in the experiment with APP mRNA was “reduced APP mRNA translation”. Besides, the “binding of the APP 5′UTR to its cognate RNA binding protein, IRP1” value in the experiment with APP 5′UTR / IRP1 was “prevented binding”. In addition, in the experiment with SARS-CoV-2 (FIGS. 9A-B), the “inhibition of COVID-19 viral spike protein (densitometric quantitation)” value was “inhibited COVID-19 viral spike protein”. For the same compound, in the experiment on SARS-CoV-2 (MOI 0.1, 2 days post infection), the “COVID-19 infectivity (immunocytochemical fluorescence of Spike Protein as readout)” value is on record as “dose-dependently inhibited COVID-19 infectivity”.
`Cc1c(OCC(F)(F)F)ccnc1C[S+]([O-])c1nc2ccccc2[nH]1` (stereo not shown) [Lansoprazole]: in the experiment on SARS-CoV-2 USA-WA1/2020, the “anti-viral activity” value was “dose responsive anti-viral activity” and the “viral infectivity (number of plaques)” value was “inhibited viral infectivity”.
On to `CN1CC[C@]2(C)c3cc(OC(=O)Nc4ccccc4)ccc3N(C)[C@H]12` [Posiphen, posiphen], for which, in the experiment on SARS-CoV-2 USA-WA1/2020, the “viral infectivity (plaque assay)” value is on record as “reduced viral infectivity”.
On to `CC(O)(CCOP(=O)(O)OP(=O)(O)O)CC(=O)O` (stereo not drawn) [Syn-516], for which the “viral infectivity (plaque assay)” value in the experiment with SARS-CoV-2 USA-WA1/2020 is “reduced viral infectivity”.
With `CCCOc1ccc2nc(NC(=O)OC)[nH]c2c1` [oxibendazole], the “inhibition … of a Luciferase reporter gene” value with APP 5′UTR turned out to be 85.9%.
